Earlier results in the CATMoS acute toxicity set (Mansouri et al. 2021).
Several values for one entry are separate records, joined by “and”; a condition that tells them apart may be missing. Equal values may be shown once.

Assay: rat acute oral toxicity
Conditions: in vivo

| Structure (SMILES) | LD50 |
| --- | --- |
| Cc1c(N)nc(C)c2c1[nH]c1ccccc12 | 100 mg/kg |
| Cc1cccc(N)n1 | 100 mg/kg |
| Nc1ccc2cc(S(=O)(=O)O)cc(O)c2c1N=Nc1ccc(-c2ccc(N=Nc3ccc(O)c(C(=O)O)c3)cc2)cc1 | 22400 mg/kg |
| COc1ccc2nc3c(c(N)c2c1)CCCC3 | 753 mg/kg |
| CC1C(=O)OC2CCN3CC=C(COC(=O)C(C)(O)C1(C)O)C23 (configuration not stated) | 45.5 mg/kg |
| CC[N+](C)(C)C(C)CC(c1ccccc1)c1ccccc1 (configuration not stated) | 1000 mg/kg |
| O=C1CCc2cc(C(=O)CCCN3CC=C(c4ccccc4)CC3)ccc2N1 | 500 mg/kg |
| CCOC(=O)C1(c2ccccc2)CCCN(C)CC1 (configuration not stated) | 580 mg/kg and 355 mg/kg |
| NC(=S)SSC(N)=S | 1950 mg/kg |
| CNC(=O)Nc1nc2ccccc2s1 | 1280 mg/kg |
| CN1CCN(c2c(F)cc3c(=O)c(C(=O)O)cn4c3c2SCC4)CC1 | 501 mg/kg |
| O=C(c1cc2ccccc2o1)N1CCN(Cc2ccccc2)CC1 | 2530 mg/kg |
| CCOP(=S)(Oc1cccc2cccnc12)c1ccccc1 (configuration not stated) | 150 mg/kg |
| CC(C)=CCCC(C)CC=O (configuration not stated) | 2420 mg/kg and 7200 mg/kg |
| CC(C)(C)NCC(O)COc1cccc2c1CCC(=O)N2 (configuration not stated) | 1330 mg/kg |
| Nc1ccc2[nH]c3ccc(N)cc3c2c1 | 1040 mg/kg |
| CC(C)COP(=S)(S)OCC(C)C | 3000 mg/kg |
| O=c1[nH]c2cc(Cl)c(Br)cc2o1 | 500 mg/kg |
| OCC(F)(F)C(F)(F)C(F)(F)C(F)(F)C(F)(F)C(F)(F)C(F)(F)C(F)F | 4400 mg/kg |
| C[C@H]1O[C@@H](O[C@H]2[C@@H](O)C[C@H](O[C@H]3[C@@H](O)C[C@H](O[C@H]4CC[C@@]5(C)[C@H](CC[C@@H]6[C@@H]5C[C@@H](O)[C@]5(C)[C@@H](C7=CC(=O)OC7)CC[C@]65O)C4)O[C@@H]3C)O[C@@H]2C)C[C@H](O)[C@@H]1O | 28.3 mg/kg |
| CS(=O)c1ccc(Cl)cc1 (configuration not stated) | 463 mg/kg |
| NC(=O)NC(=O)Cc1ccccc1 | 1600 mg/kg |
| FC(F)(F)c1ccccc1 | 15000 mg/kg |
| OC(CNc1ccccn1)c1ccccc1 (configuration not stated) | 756 mg/kg |

| Structure (SMILES) | LD50 |
| --- | --- |
| CCC(C)(O)CCc1ccccc1 (configuration not stated) | 2950 mg/kg |
| CC1CCCC2N(C)C=C(C(N)=O)C(=O)N12 (configuration not stated) | 370 mg/kg |
| CC1=CCC2C(C1)C2(C)C (configuration not stated) | 4800 mg/kg |
| CCOC(=O)C1(c2ccccc2)CCN(CCC(C#N)(c2ccccc2)c2ccccc2)CC1 | 221 mg/kg |
| CN(C)CCNC(=O)C(C)(C)Oc1ccc(Cl)cc1 | 130 mg/kg |
| CN=C(O)O/N=C1\COCCS1 | 37 mg/kg |
| CC(C)[N+](C)(CCOC(=O)C1c2ccccc2Oc2ccccc21)C(C)C | 370 mg/kg |
| CC(C)C1=Nc2ccccc2C1=C(N)c1cccnc1 | 350 mg/kg |
| CCC(C)C(CN(C)C)c1ccc(OC)c(Cl)c1 (configuration not stated) | 454 mg/kg |
| O=C(O)c1cccc(Cl)n1 | 2180 mg/kg |
| Nc1cccc2cc(S(=O)(=O)O)ccc12 | 14200 mg/kg |
| Nc1ccc2nc(C(F)(F)F)[nH]c2c1 | 67 mg/kg |
| CCOP(=O)(OCC)Oc1ccc([N+](=O)[O-])cc1 | 1.8 mg/kg |
| Clc1cn[nH]c1 | 527 mg/kg |
| C=CC(=O)NC | 476 mg/kg |
| CC(C)(N1CC1C#N)N1CC1C(N)=O (configuration not stated) | 3100 mg/kg |
| NC(=O)OCCCc1ccccc1 | 1110 mg/kg |
| COP(=S)(OC)SCn1nc(Cl)c(C)cc1=O | 65 mg/kg |
| ClC1=C(Cl)C2(Cl)C(Cl)=C(Cl)C3C1C(Cl)CC32 (configuration not stated) | 10200 mg/kg |
| N=C(N)NC(=O)Cc1c(Cl)cccc1Cl | 142 mg/kg |
| CCCOP(=S)(OCCC)Oc1ccc(S(C)=O)cc1 (configuration not stated) | 50 mg/kg |
| CC(C)(O)C#CC(C)(C)O | 9000 mg/kg |
| CCOP(=O)(OC=C(Cl)Cl)OCC(Cl)CCl (configuration not stated) | 66 mg/kg |
| O=C(O)c1cc(O)nc(O)n1 | 10900 mg/kg |

| Structure (SMILES) | LD50 |
| --- | --- |
| CCCC[P+](CCCC)(CCCC)Cc1ccc(Cl)s1 | 455 mg/kg |
| OCCSSc1c(Cl)c(Cl)c(Cl)c(Cl)c1Cl | 2860 mg/kg |
| CCCCC(O)CC (configuration not stated) | 1870 mg/kg |
| CC(=O)C(c1ccccc1)N1CCN(CCOc2ccccc2)CC1 (configuration not stated) | 800 mg/kg |
| Cc1oc(C)c(C(=O)Nc2ccccc2)c1C | 1470 mg/kg |
| CCCCC/C(=C/c1ccccc1)CO | 4000 mg/kg |
| Clc1ccccc1C(c1ccccc1)(c1ccccc1)n1ccnc1 | 708 mg/kg |
| Cc1c(Cl)c(Br)c(Br)c2[nH]c(C(F)(F)F)nc12 | 23 mg/kg |
| O=C(O)c1cc([N+](=O)[O-])cc([N+](=O)[O-])c1O | 860 mg/kg |
| NC1CCC(CC2CCC(N)CC2)CC1 (configuration not stated) | 1750 mg/kg |
| CCOc1ccc(C2(c3ccc(OCC)cc3)CC2(Cl)Cl)cc1 | 755 mg/kg |
| CCCSP(=O)(OC)OC | 9.4 mg/kg |
| O=C(SCc1ccccc1)N1CCOCC1 | 50 mg/kg |
| CCn1cc(C(=O)O)c(=O)c2cnc(N3CCNCC3)nc21 | 16000 mg/kg |
| O=C(CCCN1CC=C(n2c(=O)[nH]c3ccccc32)CC1)c1ccc(F)cc1 | 750 mg/kg |
| CCCOc1ccc(Cl)cc1C(CN(C)C)C(C)CC (configuration not stated) | 561 mg/kg |
| CC(=O)c1ccc2oc3ncccc3c(=O)c2c1 | 1680 mg/kg |
| Nc1nc2cc(Cl)c(O)cc2o1 | 1070 mg/kg |
| COP(=O)(OC)Oc1ccc([N+](=O)[O-])c(Cl)c1 | 10 mg/kg |
| ClCc1ccccc1CCl | 2260 mg/kg |
| CCOC(C1=NCCCN1)c1ccc(Cl)cc1 (configuration not stated) | 875 mg/kg |
| CCSC(C)CC1CC(=O)C(/C(CC)=N/OC/C=C/Cl)=C(O)C1 (configuration not stated) | 1360 mg/kg |
| O=C(CCCN1CCN(c2ccccc2)CC1)c1ccc(F)cc1 | 550 mg/kg |
| CC(C)(C)c1ccc(OCC(O)COc2ccc(C(=O)O)cc2)cc1 (configuration not stated) | 2400 mg/kg |

| Structure (SMILES) | LD50 |
| --- | --- |
| Oc1c(Cl)c(Cl)cc2[nH]c(C(F)(F)F)nc12 | 52 mg/kg |
| CC(C)NC1Cc2ccccc2Cc2ccccc21 (configuration not stated) | 500 mg/kg |
| CC(C)NCCCC1(C(N)=O)c2ccccc2-c2ccccc21 | 82 mg/kg |
| COc1c(C)c2c(c(O)c1C/C=C(\C)CCC(=O)O)C(=O)OC2 | 352 mg/kg |
| O=C1NC(=O)C(=O)C(=O)N1 | 5210 mg/kg |
| FC(F)(F)C(Cl)(Cl)C(Cl)(Cl)C(F)(F)F | 800 mg/kg |
| C=CCOc1ccccc1C(N)=O | 780 mg/kg |
| CCCCCCCC/C=C\CCCCCCCC(=O)N(C)CCS(=O)(=O)O | 1700 mg/kg |
| FC(F)(F)c1nc2c(Cl)cc(Cl)cc2[nH]1 | 3.29 mg/kg |
| C=CCn1c(=O)c2[nH]c(C)nc2n(CC(C)C)c1=O | 17 mg/kg |
| O=C(O)Cc1c(Cl)ccc(Cl)c1Cl | 1780 mg/kg |
| CCCCC(CC)CO[Si](O)(O)O (configuration not stated) | 19700 mg/kg |
| CCC1Cc2cc(CC(=O)O)ccc2O1 (configuration not stated) | 1300 mg/kg |
| NC(=O)CCCCC1CCSS1 (configuration not stated) | 1980 mg/kg |
| O=S1(=O)CS(=O)(=O)OCO1 | 300 mg/kg |
| CCN(CC)CCNC(=O)c1cc(Cl)c(N)cc1OCc1ccccc1 | 220 mg/kg |
| O=Cc1ccccc1-c1ccccc1C=O | 2830 mg/kg |
| CCOC(=O)C(SP(=O)(OC)SC)c1ccccc1 (configuration not stated) | 250 mg/kg |
| CNC(=O)ON=C1CSCS1 | 13 mg/kg |
| CCC(CC)COCCOCCCN1C(=O)C2C3C=CC(C3)C2C1=O (configuration not stated) | 9500 mg/kg |
| C#CCC1=C(C)C(OC(=O)C2C(C=C(C)C)C2(C)C)CC1=O (configuration not stated) | 460 mg/kg |
| CCCCC(CC)COC(C[n+]1ccccc1)c1ccc(C2CCCC2)cc1 (configuration not stated) | 250 mg/kg |
| Oc1cccc(Cl)c1-c1ccccc1 | 3500 mg/kg |
| CC(CC(c1ccccc1)c1ccccc1)NC(C)(C)C (configuration not stated) | 465 mg/kg |

| Structure (SMILES) | LD50 |
| --- | --- |
| CCNc1nc(NC(C)CC)nc(OC)n1 (configuration not stated) | 1000 mg/kg |
| Cc1ccn(C(=O)NCCCCCCNC(=O)n2ccc(C)n2)n1 | 4850 mg/kg |
| CNC(=O)ON=C1C2CCC(C2)C1(C)[N+](=O)[O-] (configuration not stated) | 24 mg/kg |
| COC(=O)C1=C(C)NC(C)=C(C(=O)O[C@H]2CCN(Cc3ccccc3)C2)[C@H]1c1cccc([N+](=O)[O-])c1 | 105 mg/kg |
| CN(C)C(CSS(=O)(=O)O)CSS(=O)(=O)O | 333 mg/kg |
| COC=CC=C(C#N)C#N | 200 mg/kg |
| CCc1c2c(nc3ccc(OC(=O)N4CCC(N5CCCCC5)CC4)cc13)-c1cc3c(c(=O)n1C2)COC(=O)C3(O)CC (configuration not stated) | 867 mg/kg |
| CC(=O)Oc1ccc(Br)cc1C(=O)O | 1130 mg/kg |
| CCCCc1c(C)nc2ccccn2c1=O | 1100 mg/kg |
| ClCCCCCCCl | 2680 mg/kg |
| C[Si](Cn1cncn1)(c1ccc(F)cc1)c1ccc(F)cc1 | 674 mg/kg |
| CCOP(=O)(OCC)SCCS(=O)CC (configuration not stated) | 2 mg/kg |
| O=C(O)c1c(Cl)c(Cl)c(Cl)c(Cl)c1C1c2cc(Br)c(O)c(Br)c2Oc2c1cc(Br)c(O)c2Br | 8400 mg/kg |
| Cc1nn(-c2ccccc2)c(=O)c2noc(C)c12 | 1000 mg/kg |
| CC1CSC(c2ccccc2OC(=O)N(C)C)S1 (configuration not stated) | 140 mg/kg |
| CCCCCCCCCCCCCCCCCCOP(=O)([O-])OCC[N+]1(C)CCCCC1 | 631 mg/kg |
| CCOP(=S)(OCC)SC(CC(=O)OCSC)C(=O)OCSC (configuration not stated) | 3.7 mg/kg |
| CCS(=O)(=O)CCOP(=S)(OC)OC | 500 mg/kg |
| Cc1cc(C(=O)c2ccccc2)ccc1N | 700 mg/kg |
| Brc1cnc[nH]1 | 250 mg/kg |
| c1ccc2[nH]c(SN3CCCCC3)nc2c1 | 853 mg/kg |
| Cc1ccc(C(=O)c2cccc3c2CCC3C(=O)O)cc1 (configuration not stated) | 244 mg/kg |
| CON=Cc1ccc(OCC(O)(Cn2cncn2)C(C)(C)C)cc1 (configuration not stated) | 921 mg/kg |
| O=C1CN(N=Cc2ccc([N+](=O)[O-])o2)C(=O)N1 | 604 mg/kg |

| Structure (SMILES) | LD50 |
| --- | --- |
| Cc1ccc(N)nc1 | 200 mg/kg |
| CN(C)CCCn1c2c(c3ccccc31)CCCCCC2 | 775 mg/kg |
| CC(C)=CCC(CCN1CCCC1)(C(N)=O)c1cccc2ccccc12 (configuration not stated) | 71 mg/kg |
| CC(=O)C=C1CCC2C13CCC(C)C(C3)C2(C)C (configuration not stated) | 5200 mg/kg |
| Cc1ccc2c(c1)CC(=O)c1cc(C(C)C(=O)O)ccc1O2 (configuration not stated) | 147 mg/kg |
| Clc1ccc(C(OCCN2CCOCC2)c2ccccc2)cc1 (configuration not stated) | 710 mg/kg |
| COC(=O)Cc1cccc2ccccc12 | 1900 mg/kg |
| NCCN(CCN)CCN | 246 mg/kg |
| FC(F)(F)c1nc2c(Cl)c(Cl)c(Cl)c(Br)c2[nH]1 | 4.12 mg/kg |
| CCOP(=S)(OCC)SCCS(=O)(=O)CC | 7.5 mg/kg |
| CCCCCCCCCCCC(=O)OC1=C(c2c(C)cc(C)cc2C)C(=O)c2ccccc21 | 9500 mg/kg |
| COP(=S)(NC(C)C)Oc1ccc(C)cc1[N+](=O)[O-] (configuration not stated) | 309 mg/kg |
| CCCOP(=O)(OCCC)Oc1cnn(C)c(=O)c1OC | 15 mg/kg |
| C=CC(=O)N(C)C | 316 mg/kg |
| CCC(CO)NC(=O)C1C=C2c3cccc4c3c(cn4C)CC2N(C)C1 (configuration not stated) | 200 mg/kg |
| O=C1CC2(CCCC2)CC(=O)N1CCCCN1CCN(c2ncccn2)CC1 | 196 mg/kg |
| O=C(O)CCC(=O)OC1CCCCC1 | 6500 mg/kg |
| COCC(=O)N(c1c(C)cccc1C)N1CCOC1=O | 1860 mg/kg |
| CCCCNC(=O)OCC(O)C1COc2ccccc2O1 (configuration not stated) | 1500 mg/kg |
| COc1ccccc1OCC(O)COC(N)=O (configuration not stated) | 1320 mg/kg |
| O=C(CCl)c1ccc(Cl)cc1Cl | 300 mg/kg |
| Clc1cccc(C2CCCCC2)c1Cl | 4750 mg/kg |
